System: Candida albicans
Settings: sodium thiosulfate alone in MRS medium, 1 g/l and 3 g/l, regardless of the concentration studied

Structure (SMILES): O=S(O)(O)=S [sodium thiosulfate]
- antifungal potential on Candida albicans growth: No antifungal potential
